Results: US4921984A, “Novel platinum complexes” (Nippon Kayaku Kabushiki Kaisha, priority 1985, dated 1990)

Assays:
mouse leukemia L1210 = experiment: Antitumor activity test on mouse leukemia L1210 in vivo; conditions: for max (T/C): L1210, average survival time treated/control ×100, i.p. once a day for 5 days; for Opt. dose: L1210, dose giving max (T/C); for Opt. dose / LD50: i.p. once a day for 5 days; for LD50: L1210-bearing CDF1 mice
Method: Mice of compound-non-treated group (control group) were administered with physiological saline solution in the same manner. The average survival times of the compound-treated group and the control group (abbreviated as T and C, respectively) were measured and T/C percentage (T/C×100) was calculated from the following equation. [formula]
In Table 4, max (T/C) means the maximum value of T/C and optimum dose (opt. dose) means an administration amount giving the max namely, an optimum administration amount.

[1] = test system: mouse fibrosarcoma M5076 cells; experiment: Antitumor activity test in vivo, fibrosarcoma M5076; conditions: M5076 inoculated s.c., i.p. administration
Method: (§1) 1×10^6 mouse leukemia P388 cells were inoculated into the abdominal cavities of 6-week-old female CDF1 mice, and from the next day a compound No. 15 was administered to them intraperitoneally once a day for 5 consecutive days. Separately, 1×10^6 mouse lung cancer Lewis lung carcinoma (LL) cells were inoculated into the abdominal cavities of male BDFl mice, and from the next day a compound No. 15 was administered to them intraperitoneally once a day for 5 consecutive days. Separately, 1×10^6 mouse fibrosarcoma M5076 cells were inoculated into the body sides of female C57BL/6 mice subcutaneously, and from the next day a compound No. 15 was administered to them intraperitoneally. Separately, 1×10^6 mouse colon cancer (colon 26) cells were inoculated into the abdominal cavities of female CDF1 mice, and from the next day a compound No. 15 was administered to them intraperitoneally. To respective control groups (compound-non-treated groups), physiological saline solution was administered.
(§2) From the survival times of the compound-treated group and the control group, respective median values (median survival times) were calculated. Using these values, T/C percentage was calculated from the following equation. [formula]

[2] = test system: mouse colon cancer (colon 26) cells; experiment: Antitumor activity test in vivo, colon 26
Method: as §1, §2

[3] = test system: mouse lung cancer Lewis lung carcinoma (LL) cells; experiment: Antitumor activity test in vivo, Lewis lung carcinoma (LL); conditions: i.p. once a day for 5 days; for Max (T/C): median survival time
Method: as §1, §2

[4] = test system: mouse leukemia L1210 cells; experiment: Growth inhibition test on cultured mouse leukemia L1210 cells; type: cell-based; conditions: RPMI 1640 with 10% fetal calf serum
Method: Mouse leukemia L1210 cells were cultured in a RPMI 1640 medium containing 10% of fetal calf serum.

[5] = test system: cis-Platin resistant mouse leukemia L1210 cells; experiment: Growth inhibition test on cis-Platin resistant L1210 tumor cells; type: cell-based; conditions: ratio of IC50 on cis-Platin resistant to non-resistant L1210 cells
Text: (§3) 1×10^5 mouse leukemia L1210 cells or 1×10^5 mouse leukemia P388 cells were inoculated into the abdominal cavities of CDF1 female mouse. […] After 5 days, their tumor cells were inoculated to the abdominal cavities of other CDF1 female mouse, and the same treatment was applied.

[6] = test system: mouse leukemia P388 cells; experiment: Antitumor activity test in vivo, mouse leukemia P388; conditions: for Opt. dose: P388, i.p. once a day for 5 days; for Max (T/C): P388, median survival time, i.p. once a day for 5 days
Method: as §1, §2

[7] = test system: cis-Platin resistant mouse leukemia P388 cells; experiment: Growth inhibition test on cis-Platin resistant P388 tumor cells; type: cell-based; conditions: ratio of IC50 on cis-Platin resistant to non-resistant P388 cells
Text: as §3

various tumor cells = experiment: Antitumor activity on various tumors (general statement); type: in vivo, mouse; conditions: in words
Method: as §1, §2

Test for renal toxicity = conditions: mouse, in vivo
Method: A compound was administered one time to 6-week-old male CDFl mice intraperitoneally. After 4 days, their blood was collected for measurement of blood urea nitrogen concentration (BUN value).
In Table 6, body weight ratio is a ratio of body weight after 4 days from administration to body weight of administration day.

[8] = rate, in words; prior art; cited from earlier work

Row | Structure (SMILES) | max (T/C) (mouse leukemia L1210) | Opt. dose (mouse leukemia L1210) | LD50 (mouse leukemia L1210) | Opt. dose [1] | Max (T/C) ([1]; median survival time) | Opt. dose ([2]; Colon 26, i.p. administration) | Max (T/C) ([2]; Colon 26, median survival time, i.p. administration) | Opt. dose [3] | Max (T/C) [3] | Solubility in water | IC50 [4] | IC50 R/IC50, Tumor cell L1210 [5] | Opt. dose [6] | Max (T/C) [6] | IC50 R/IC50, Tumor cell P388 [7] | antitumor effect (various tumor cells) | renal toxicity (Test for renal toxicity) | Solubility in physiological saline solution (physiological saline) | dissolution in water [8]
1 | CC1CC[NH2+][Pt-2]2([NH2+]C1)[O]C(=O)C1(CCC1)C(=O)[O]2 (racemic) [Compound No. 15, cis-Cyclobutane-1,1-dicarboxylato-2-methyl-1,4-butanediamine platinum] | 182% | 32 mg/kg | 80.0 mg/kg | 16 mg/kg | 152% | 32 mg/kg | 198% | 32 mg/kg | 222% | > 8 mg/mL | 1.20 µg/mL | 3.19 | 32 mg/kg | 260% | 3.26 |  |  |  | 
2 | C[C@@H](CN)CCN.O=C([O-])C1(C(=O)[O-])CCC1.[Pt+2] (stereo in doubt) [15R, cis-cyclobutane-1,1-dicarboxylato-R-2-methyl-1,4-butanediamine platinum] | 189% | 32 mg/kg | 33.6 mg/kg |  |  |  |  | 30 mg/kg | 166% | > 15 mg/mL | 0.78 µg/mL |  | 20 mg/kg | 253% |  | excellent antitumor activities on various tumor cells | very low renal toxicity |  | 
3 | C[C@H]1CC[NH2+][Pt-2]2([NH2+]C1)[O]C(=O)C1(CCC1)C(=O)[O]2 [15S, cis-cyclobutane-1,1-dicarboxylato-S-2-methyl-1,4-butanediamine platinum] | 206% | 32 mg/kg | 48.0 mg/kg |  |  |  |  | 50 mg/kg | 164% | > 15 mg/mL | 1.08 µg/mL |  | 40 mg/kg | 253% |  | excellent antitumor activities on various tumor cells | very low renal toxicity |  | 
4 | CC1(C)CCC[NH2+][Pt-2]([Cl])([Cl])[NH2+]1 [Compound No. 25, cis-Dichloro-1,1-dimethyl-1,4-butanediamine platinum] | 150% | 2 mg/kg | 3.0 mg/kg |  |  |  |  |  |  |  | 0.25 µg/mL |  |  |  |  |  |  | > 2 mg/ml | 
5 | N.N.[Cl][Pt][Cl] [cis-Platin, cis-dichlorodiammineplatinum, reference compound] |  | 4 mg/kg |  |  |  |  |  |  |  |  |  |  |  |  |  |  |  |  | dissolving in water slowly
